Laboratory results published in patent publication US20250090498A1, “TREATMENT OF PRIMARY CTLA-4 CHECKPOINT RELATED IMMUNODEFICIENCIES” (ADIENNE PHARMA & BIOTECH SA, priority 2023, published 2025).

Assays:
[1] = molecular target: T1, AhR (Homo sapiens, UniProt P35869); test: AhR target gene expression by RT-PCR in A549, Calu-3, CaCo-2 and HepG32 cell lines; format: cell-based; design: endogenous in cells; host or cells: HepG2, A549, Calu-3, CaCo-2; conditions: for AhR activity at the higher 1000 M concentration: increased in CaCo-2 and HepG32 but not on Calu-3 cells
T1 sequence (P35869 11-848): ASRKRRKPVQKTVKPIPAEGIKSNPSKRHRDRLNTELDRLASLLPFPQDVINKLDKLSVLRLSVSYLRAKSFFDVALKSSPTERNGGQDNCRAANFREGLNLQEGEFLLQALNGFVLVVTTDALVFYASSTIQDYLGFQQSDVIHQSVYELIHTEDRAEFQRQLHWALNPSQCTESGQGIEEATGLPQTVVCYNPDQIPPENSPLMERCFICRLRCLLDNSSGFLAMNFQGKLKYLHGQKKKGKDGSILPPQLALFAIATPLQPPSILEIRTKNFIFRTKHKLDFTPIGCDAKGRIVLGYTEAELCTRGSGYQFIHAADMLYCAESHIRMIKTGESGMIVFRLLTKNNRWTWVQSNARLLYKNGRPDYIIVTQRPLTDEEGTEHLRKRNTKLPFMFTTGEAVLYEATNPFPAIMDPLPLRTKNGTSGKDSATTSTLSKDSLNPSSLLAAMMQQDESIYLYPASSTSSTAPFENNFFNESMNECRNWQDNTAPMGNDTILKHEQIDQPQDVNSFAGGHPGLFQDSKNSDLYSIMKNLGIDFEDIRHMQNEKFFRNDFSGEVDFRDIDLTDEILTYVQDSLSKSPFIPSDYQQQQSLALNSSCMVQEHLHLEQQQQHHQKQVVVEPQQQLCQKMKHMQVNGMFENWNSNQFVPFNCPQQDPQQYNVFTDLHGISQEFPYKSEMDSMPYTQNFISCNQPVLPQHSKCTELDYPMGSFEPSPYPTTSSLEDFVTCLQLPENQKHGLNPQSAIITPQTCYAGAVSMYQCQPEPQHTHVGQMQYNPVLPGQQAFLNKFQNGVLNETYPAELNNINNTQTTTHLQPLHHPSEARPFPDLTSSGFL
Method: ITE and FICZ are reference AhR agonists. Assays were performed at 4 hours post-incubation.
To further characterize the AhR agonistic potential of 1ME3CA, the ability of 3-IAld and 1ME3CA to activate target genes downstream AhR (Cyp1a1, Cyp2a1 and AhRR) in the A549 cell line derived from adenocarcinomic human alveolar basal epithelial cells, in the Calu-3 cell line derived from adenocarcinomic human bronchial epithelial cells, in the CaCo-2 cell line derived from human colon carcinoma and in the […] human liver cancer cell line was comparatively assessed. Cells were exposed to 1, 10, 100 and 1000 µM of either molecules or DMSO for 4 hours or overnight (on) at 37° C. before being assessed for the expression of the above-mentioned genes by RT-PCR.

[2] = single-dose pharmacokinetic study in healthy C57BL/6 mice, tissues and serum by mass spectrometry
Method: (§1) A single-dose pharmacokinetic (PK) study was performed on healthy C57BL/6 mice to compare 1ME3CA and 3-IAld at 0.36 mg/topo dose. Untreated naïve mice were used as the control. […] Blood, obtained by cardiac puncture and collected into EDTA-containing tubes, and organs (brain, lung, intestine, liver and kidney) were assessed. All samples were stored at −80° C. until use. To evaluate 1ME3CA and 3-IAld for functional activity, the expression of AhR-downstream genes were concomitantly evaluated in these mice.

[3] = in vivo; conditions: C57BL/6, mouse, 18 mg/kg
Method: as §1

[4] = toxicology, up to 3 weeks, PAS tissue pathology in C57BL/6 mice; format: in vivo; conditions: 0.36-0.18-0.09 mg/mouse intragastrically, enteric microparticles
Method: For assess toxicology, C57BL/6 mice received intragastrically escalating doses of 0.36-0.18-0.09 mg/mouse of 3-IAld or 1ME3CA formulated in enteric microparticles for up to 3 weeks as shown in Table 3 below. At the end of treatment, mice were sacrificed, and tissue pathology blindly examined on different organs after PAS staining of different section from each organ. Sections of organs from 4 mice in each group were separately evaluated.

Row | SMILES | expression of the IDO1 and IDO2 genes [1] | AhR activity at the higher 1000 M concentration [1] | concentrations in all organs ([2]; after enteric 1ME3CA 18 mg/Kg) | disappearance of 3-IAld from tissues ([2]; single oral 18 mg/Kg 3-IAld, enteric microparticles, after 2 hours, most tissues) | half-life ([3]; po) [min] | tissue pathology in different organs (PAS) [4] | AhR agonistic activity versus 3-IAld (overall) [1] | expression of AhR-dependent Cyp1a1, Cyp2a1 and AhRR genes ([1]; cell lines tested, 4 hours or overnight) | extent of gene expression versus reference AhR ligands ITE or FICZ and 3-IAld ([1]; similar concentration, i.e. 100 μM) | detectability at 6 hours in serum, lung, and kidneys ([2]; after enteric 1ME3CA 18 mg/Kg) | Cmax values ([2]; after enteric 1ME3CA 18 mg/Kg, all organs and serum) | levels 24 hours after the administration in intestine, liver and brain ([2]; after enteric 1ME3CA 18 mg/Kg, versus control) | systemic levels versus those after oral 3-IAld ([2]; after oral 1ME3CA) | clearance of metabolites from the organs ([2]; after oral 3-IAld 18 mg/Kg) | concentrations in the intestine, serum, and kidney ([2]; after oral 3-IAld 18 mg/Kg) | level 24 hours after administration of 3-IAld ([2]; mice administered with 3-IAld) | Tmax ([3]; in vivo) [min]
1 | O=Cc1c[nH]c2ccccc12 [3-IAld, 1H-indole-3-carbaldehyde] | No activity was observed | inconsistent results | basal | rapidly disappeared | 180 to 300 | absence of visible tissue pathology |  |  |  |  |  |  |  |  |  |  | 
2 | Cn1cc(C(=O)O)c2ccccc21 [1-methylindole-3-carboxylic acid, 1-Methyl-1H-indole-3-carboxylic acid] | No activity was observed | inconsistent results |  |  |  | absence of visible tissue pathology | comparable, if not superior | promoted the expression | comparable, or even superior | undetectable | very similar | still higher than control | more sustained and, as expected, significantly higher | rapid clearance | basal | had disappeared | 30
